Assay results reported in patent US20140235578A1, “METHODS FOR TREATING NEOPLASIA AND FOR IDENTIFYING COMPOSITIONS USEFUL IN SUCH THERAPY” (priority 2007, published 2014).
Where a SMILES comes first, the peptide text is derived from it. The star is where a group is joined. Cbz = O=C(OCc1ccccc1)*

Assays:
[1] = test system: Top2β; assay: Top2β protein level by Western blotting in H9C2 cells; format: cell-based; conditions: 100 μM, 0-6 hrs
Description: (§1) The amount of Top2 cleavage complexes was measured by a band depletion assay as described in Materials and Methods. Cells were lysed either immediately or after reversal of the Top2 cleavage complexes (labeled R+250). Cell lysates were analyzed by Western blotting using anti-Top2α/Top2β or anti-α-tubulin antibody. […] Cells were then lysed and protein levels of Top2α, and Top2β isozymes were determined by Western blotting. […] Cell lysates were immunoblotted using anti-Top2β antibody. D, H9C2 cells were treated with ICRF187 (100 μM) for 4 hrs, followed by treatment with doxorubicin (Doxo, 0, 0.5 and 1 μM) for 1.5 hrs. Neutral comet assay was then performed as described in Materials and Methods. The average comet tail moments were plotted as histograms (mean±SEM). * p-value<0.001, t-test.

[2] = target: T1, Top2α (Rattus norvegicus, UniProt P41516); assay: Top2α protein level by Western blotting in H9C2 cells; format: cell-based; conditions: 100 μM, 0-6 hrs
T1 construct: endogenous in cells; host or cells: H9C2 cardiomyocytes
Description: as §1

[3] = test system: H9C2 cardiomyocytes; format: cell-based
Description: Vitamin C and NAC were added 30 min prior to doxorubicin. Cell lysates were then analyzed by Western blotting using anti-γ-H2AX or anti-α-tubulin antibody. […] Cell lysates were then analyzed by Western blotting (upper panel) using anti-γ-H2AX or anti-α-tubulin antibody. Quantification of γ-H2AX signals is shown in the lower panel. C, H9C2 cells were treated with 0.1% DMSO (labeled DMSO), bortezomib (1 μM) or MG132 (4 μM) for 30 min, followed by co-treatment with either 0.1% DMSO (labeled control) or 0.5 μM doxorubicin (labeled Doxo) for 1.5 hrs. Neutral comet assay was then performed as described in Materials and Methods. The average comet tail moments were plotted as histograms (mean±SEM). *p-value<0.001, t-test.
as §1, with “Neutral comet assay was then performed as described in Materials and Methods. The average comet tail moments were plotted as histograms (mean±SEM). * p-value<0.001, t-test.” left out

[4] = test system: MEFs; assay: Neutral comet assay of VP-16-induced DSBs; format: cell-based, mouse; conditions: co-treatment, data not shown
Description: Both wild type and Top2β knockout mouse embryonic fibroblasts (MEFs) were treated with either DMSO (solvent control) or VP-16 (250 μM) for 90 min, followed by incubated in drug-free media for 30 min. Neutral comet assay was then performed. Tail moment (average from 100 cells) was determined for each treatment.

[5] = test system: SV40-transformed MEFs; assay: Plasmid integration assay; format: cell-based, mouse; conditions: 2 μM, added 30 min prior to and during transfection
Description: Transformed top2β^+/Δ2 and top2β^Δ2/Δ2 MEFs were plated in six-well plates (4×10^5 cellsper well) one day prior to transfection. Transfection was performed with EcoRI-linearized pUCSV-BSD plasmid (containing the blasticidin resistance gene) using the Cellfectin (Invitrogen) transfection reagent (0.1 μg DNA+2 μl Cellfectin). VP-16 was added at the time of transfection. After 6 hr, cells were washed and trypsinized. A small aliquot was removed, reseeded into fresh medium and grown without the selection agent for survival determination. The rest of the cells were reseeded into fresh medium in a 10 cm plate. After 24 hr, the selection agent blasticidin (3 μg/ml) was added. Colonies were stained with methylene blue and counted after 10 days. Where indicated, the proteasome inhibitor MG132 (2 μM) was added 30 min prior to and during transfection. Integration frequency was determined as the ratio of the number of blasticidin-resistant colonies and the number of surviving cells.

T1 sequence (P41516 whole entry): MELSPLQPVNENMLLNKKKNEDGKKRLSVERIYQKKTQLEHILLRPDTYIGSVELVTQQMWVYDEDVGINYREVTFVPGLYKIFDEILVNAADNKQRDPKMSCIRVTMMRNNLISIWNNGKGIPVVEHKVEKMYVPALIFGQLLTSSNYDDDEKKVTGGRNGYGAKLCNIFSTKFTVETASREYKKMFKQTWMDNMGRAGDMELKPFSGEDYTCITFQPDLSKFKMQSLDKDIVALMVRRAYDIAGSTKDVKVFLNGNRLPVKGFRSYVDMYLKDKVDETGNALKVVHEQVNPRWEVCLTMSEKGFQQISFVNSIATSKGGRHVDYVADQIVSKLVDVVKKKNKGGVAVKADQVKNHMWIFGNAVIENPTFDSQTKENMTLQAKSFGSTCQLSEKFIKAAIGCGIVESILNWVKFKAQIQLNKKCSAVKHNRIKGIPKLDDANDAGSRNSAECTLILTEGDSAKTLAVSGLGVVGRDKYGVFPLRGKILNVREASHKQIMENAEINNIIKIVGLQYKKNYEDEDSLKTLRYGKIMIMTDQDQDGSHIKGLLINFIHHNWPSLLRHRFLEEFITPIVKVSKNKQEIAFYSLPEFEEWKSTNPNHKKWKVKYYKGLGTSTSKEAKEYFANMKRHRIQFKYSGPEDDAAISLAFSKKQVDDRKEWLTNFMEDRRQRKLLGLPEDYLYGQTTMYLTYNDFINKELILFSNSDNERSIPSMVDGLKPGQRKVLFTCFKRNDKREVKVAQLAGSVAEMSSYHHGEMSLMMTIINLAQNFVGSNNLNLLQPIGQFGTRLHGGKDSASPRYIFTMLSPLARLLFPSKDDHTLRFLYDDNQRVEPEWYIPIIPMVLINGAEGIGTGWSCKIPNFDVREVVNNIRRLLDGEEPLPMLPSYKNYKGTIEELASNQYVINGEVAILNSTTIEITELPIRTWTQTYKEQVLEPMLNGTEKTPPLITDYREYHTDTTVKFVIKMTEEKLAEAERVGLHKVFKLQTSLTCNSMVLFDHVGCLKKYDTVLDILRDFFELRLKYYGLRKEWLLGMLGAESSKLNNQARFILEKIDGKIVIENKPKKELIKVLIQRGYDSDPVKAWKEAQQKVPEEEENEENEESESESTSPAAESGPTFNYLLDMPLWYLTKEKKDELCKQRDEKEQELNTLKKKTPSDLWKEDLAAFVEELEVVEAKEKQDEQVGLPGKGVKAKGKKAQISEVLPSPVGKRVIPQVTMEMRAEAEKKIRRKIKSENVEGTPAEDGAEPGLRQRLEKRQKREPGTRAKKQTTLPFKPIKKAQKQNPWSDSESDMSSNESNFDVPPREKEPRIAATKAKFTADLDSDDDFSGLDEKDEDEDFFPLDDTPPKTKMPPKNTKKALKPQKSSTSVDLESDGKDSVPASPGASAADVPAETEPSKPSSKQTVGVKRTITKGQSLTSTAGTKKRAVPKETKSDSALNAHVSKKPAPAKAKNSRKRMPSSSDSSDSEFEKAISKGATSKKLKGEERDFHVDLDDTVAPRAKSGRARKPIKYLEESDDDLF

Row | Compound | protein level of Top2β [1] | level of the Top2α isozyme [2] | effect on doxorubicin-induced comet tail moment [3] | effect on VP-16-induced DSBs [4] | effect on VP-16-stimulated plasmid integration [5]
1 | C[C@@H](CN1CC(=O)NC(=O)C1)N1CC(=O)NC(=O)C1 [dexrazoxane] | time-dependent disappearance | no significant effect |  |  | 
2 | CC(C)C[C@@H](C=O)NC(=O)[C@H](CC(C)C)NC(=O)[C@H](CC(C)C)NC(=O)OCc1ccccc1 [MG132, N-[(Phenylmethoxy)carbonyl]-L-leucyl-N-[(1S)-1-formyl-3-methylbutyl]-L-leucinamide] (Cbz-Leu-Leu-Leu-aldehyde) |  |  | significantly reduced | abolish | blocks
